Results from PMC8284453 (Antimicrobial Agents and Chemotherapy, 2021).
≈ marks a conversion by molar mass, not a printed value.

Experiments:
[1] = tested on: isogenic strains of E. coli expressing Ambler class A, B, C, and D enzymes; assay: microbe, parasite or virus in culture; type: cell-based, Escherichia coli; details: Escherichia coli, read-out: modal MIC
[2] = target: T1, OXA-1 (Escherichia coli, UniProt P13661); assay: IC50 determination against purified β-lactamase; type: biochemical; details: substrate nitrocefin; mean from duplicate measurements
T1 construct: made in house; host or cells: E. coli BL21(DE3), pET9a

[3] = target: T2, OXA-48 (Klebsiella pneumoniae, UniProt Q6XEC0); assay: biochemical
T2 construct: made in house; host or cells: E. coli BL21(DE3), plasmid pET-OXA-48 (pET9a)

[4] = target: CTX-M-15 (Escherichia coli, UniProt Q9EXV5); assay: IC50 determination against purified β-lactamase; type: biochemical; set-up: made in house; host or cells: E. coli BL21(DE3), plasmid pET-CTX-M-15 (pET9a); details: substrate cefotaxime; mean from duplicate measurements; read-out: IC50
Description: (§1) An equal volume of enzyme was added (assay concentrations, 0.6 nM P99AmpC, 21 nM CTX-M-15, 3 nM KPC-2, 100 nM SHV-5), and the mixtures were preincubated for 15 min at 37°C. For AmpC, nitrocefin was then added to obtain a final concentration of 100 μM, and the absorbance at a wavelength (λ) of 486 nm (representing hydrolysis of the nitrocefin β-lactam ring) was monitored immediately using a BioTek Powerwave XS2 microplate reader. In similar fashion, using UV-transparent 96-well microtiter plates, hydrolysis of imipenem (100 μM) by KPC-2 was monitored at λ 300 nm, while cefotaxime (100 μM) hydrolysis by CTX-M-15 and SHV-5 was monitored at λ 300 nm. Assays were performed in duplicate, and the percentage inhibition relative to reaction mixtures containing no inhibitor were determined for each concentration of inhibitor.

[5] = target: KPC-2 (Klebsiella pneumoniae, UniProt Q9F663); assay: IC50 determination against purified β-lactamase; type: biochemical; set-up: made in house; host or cells: E. coli BL21(DE3), plasmid pET-KPC-2 (pET9a); details: substrate imipenem; mean from duplicate measurements
Description: as §1

[6] = tested on: K. pneumoniae ATCC BAA-1705 (KPC-2); assay: Broth microdilution MIC; type: cell-based; details: Klebsiella pneumoniae, ATCCBAA1705
[7] = tested on: E. coli ESBL4 (CTX-M-15); assay: Broth microdilution MIC; type: cell-based; details: Escherichia coli
[8] = tested on: K. pneumoniae 752286 (OXA-48); assay: Broth microdilution MIC; type: cell-based; details: Klebsiella pneumoniae
[9] = tested on: E. cloacae ECL01 (TEM-72, ACT-1, P99AmpC); assay: 24-h time-kill assay; type: cell-based
Description: (§2) In vitro antibacterial time-kill assay. […] Time-kill assays were performed in 14 ml glass tubes or deep-well storage plates with a bacterial inoculum in CAMHB of 5 × 10^5 CFU/ml. The tubes/plates were incubated at 37°C with shaking at 200 rpm, and aliquots were drawn at six time points (0, 2, 4, 6, 8, and 24 h) to conduct 0.5 log10 dilutions in CAMHB in 96-well plates that were incubated overnight at 37°C and used to ascertain viable bacterial counts. The lowest quantifiable amount by this method is 2 log10 CFU/ml.

[10] = tested on: K. pneumoniae 752286 (OXA-48); assay: 24-h time-kill assay; type: cell-based; details: Klebsiella pneumoniae; lowest concentration with ≥3-log10 CFU/ml reduction at 24 h; read-out: MBC
Description: as §2

[11] = tested on: K. pneumoniae ATCC BAA-1705 (KPC-2); assay: 24-h time-kill assay; type: cell-based; details: Klebsiella pneumoniae, ATCCBAA1705; lowest concentration with ≥3-log10 CFU/ml reduction at 24 h; read-out: MBC
Description: as §2

[12] = tested on: E. coli ESBL4 (CTX-M-15); assay: 24-h time-kill assay; type: cell-based; details: Escherichia coli; lowest concentration with ≥3-log10 CFU/ml reduction at 24 h; read-out: MBC
Description: as §2

[13] = tested on: E. cloacae ECL01 (TEM-72, ACT-1, P99AmpC); assay: Broth microdilution MIC; type: cell-based; details: Enterobacter cloacae
[14] = target: T3, CMY-2 (Klebsiella pneumoniae, UniProt Q48434); assay: IC50 determination against purified β-lactamase; type: biochemical; details: substrate nitrocefin; mean from duplicate measurements; read-out: IC50
T3 construct: made in house; host or cells: E. coli BL21(DE3), pET9a

Compound | MIC [1] | IC50 [2] | IC50 [3] | IC50 [4] | IC50 [5] | MIC [6] | MIC [7] | MIC [8] | MBC ([9]; Enterobacter cloacae, lowest concentration with ≥3-log10 CFU/ml reduction at 24 h, read-out: MBC) | outcome of 24-h time-kill assay ([9]; Fig. 3b) | MBC [10] | MBC [11] | MBC [12] | MIC [13] | IC50 [14]
O=C(O)[C@H]1/C(=C/CO)O[C@@H]2CC(=O)N21 [Clavulanic acid, clavulanic acid] | 32 µg/mL (≈ 161 µM) | 120 nM | 14300 nM | 40 nM | 1800 nM |  |  |  |  |  |  |  |  |  | 
C[C@H]1COc2c(N3CCN(C)CC3)c(F)cc3c(=O)c(C(=O)O)cn1c23 [Levofloxacin, levofloxacin] |  |  |  |  |  | 64 µg/mL (≈ 177 µM) | 32 µg/mL (≈ 88.6 µM) | 32 µg/mL (≈ 88.6 µM) | 0.12 µg/mL (≈ 0.332 µM) | bactericidal activity | > 32 µg/mL | ≥ 64 µg/mL | 32 µg/mL (≈ 88.6 µM) | 0.12 µg/mL (≈ 0.332 µM) | 
C[C@]1(Cn2ccnn2)[C@H](C(=O)O)N2C(=O)C[C@H]2S1(=O)=O [Tazobactam, tazobactam] |  |  | 3500 nM |  | 1700 nM |  |  |  |  |  |  |  |  |  | 410 nM
